What is called solubility is the concentration that dissolves in the medium under given conditions.

Values after ≈ are worked out from the molar mass of the structure shown. Values joined by “and” are separate entries in the source; they are usually repeats but may differ in a detail not shown here. Equal entries are not always repeated. Where two headings read alike, the source gives them in different places. Where only a bound is given, the exact number is not on record here.

The nature of series [1]: NaCl extraction from 0.2M NaCl water by ASM/CEM composition, ion chromatography of treated water. To be noted: ASM: 3TFMPhOH; CEM 0.2M; NaCl 0.2M water. The procedure: To 3 mL of 3-(trifluoromethyl)phenol, was added 217 mg of Dibenzo-18-crown-6 in order to obtain a formulation with 0.2 mole/L of DB18C6. This sealed formulation was then orbitally stirred at 500 rpm overnight after 1 mL of distilled water was added twice to allow water saturation of the whole.
The next morning, an aqueous 0.2 mol/L NaCl solution was prepared from twice distilled water, while the formulation that was stirred overnight was allowed to stand for decantation. A clear decantation of the two colorless phases is obtained in a few minutes. 3 mL of the organic extraction solution is then removed and transferred to a flask containing 3 mL of this salt water containing 0.2 M NaCl, then the flask is sealed and orbitally stirred (usually 500 rpm), for 3 hours and at room temperature. It is verified that droplets of the order of 1-2 mm are present in quantity at the selected stirring speed (400 to 900 rpm).
After stirring for 2 hours, stirring is stopped and the whole is left to stand for decantation for at least 10 minutes until the two phases are completely separated. The upper aqueous phase is then removed and then stirred and diluted for analysis of its salinity by a Metrohm Ion Chromatography Incorporating a suitable cation analysis column and a suitable anion analysis column. Similarly, the initial aqueous solution of 0.2M NaCl is also analyzed by this ion chromatography equipment to determine its relative concentration of sodium and chlorides. […]

Series [2] can be described thus: Solubility in water (UV-visible spectrometry). It counts as physicochemical. To be noted: for solubility: water. From the text: The hydrophobicity or solubility of a compound can be measured by standard methods and in particular by UV-visible spectrometry.
For series [3] the following is noted: methanol, published complexing constants, cited from earlier work.
For series [4] the following is noted: methanol; cited from earlier work.
A short description of series [5]: NaCl extraction from 0.4M NaCl water by ASM + Calix[4]Est in chloroform (Example 11). Conditions: for Mol % Cl- extracted from the water to be treated / Mol % Na+ extracted from the water to be treated: CEM 0.3 Mol/L, ASM 0.3 Mol/L in CHCl3, 0.4 M NaCl. How it is done: The extraction composition is obtained by solubilizing an amount of 4-tert-butyl Calix[4]arene tetraethyl Ester (CAS No. 97600-39-0) and ASM in chloroform CHCl3 to obtain a final concentration after solubilization of the CEM and ASM of 0.3 mol/L for Calix[4]Est and of 0.3 mol/L for ASM, respectively. These sealed formulations were then orbitally stirred at 500 rpm for 2 hours after adding an equivalent volume of twice distilled water to allow water saturation of the entire formulation and control of pH output (pH=7). The extraction composition is then put to stand to settle. All the compositions tested are stable and rapidly decanted (a few minutes at the most).
A 0.4 mol/L NaCl aqueous solution was prepared from twice distilled water.
The organic extraction composition is then slightly heated to promote solubilization of the compounds by hot air gun (temperature of about 50 to 60° C.) for a few seconds (10 to 30 seconds) until a clear solution is obtained.
3 mL of the organic extraction composition is then removed from the lower phase of the settled two-phase mixture and transferred to a vial containing 3 mL of salt water at 0.4 M NaCl and then the flask is sealed and orbitally stirred (at 500 revolutions per minute), for 2 hours at room temperature (RT), that is to say between 20 and 25° C. In the case of extraction at 60° C., magnetic stirring (at 500 revolutions per minute), for 2 hours, is carried out with indirect heating in a metal mold on a heating plate. It is verified that droplets of the order of 1-2 mm are present during these agitations in order to be certain to achieve equilibrium in the NaCl distribution between the two liquid phases at the end of stirring. The appearance of the organic and aqueous phases is clear and colorless or slightly cloudy.
After stirring for 2 hours, stirring is stopped and the solution is put to stand to settle within 10 minutes, at least until the two phases have completely separated off, at the temperature of the test. The upper aqueous phase is then removed and then stirred and diluted for analysis of its salinity by a Metrohm Ion Chromatograph incorporating a suitable cation analysis column and a suitable anion analysis column. Similarly, the initial aqueous solution of NaCl at 0.4M is also analyzed by this ion chromatograph to determine its relative molar concentration in sodium and in chlorides. AN extractions and analyzes were duplicated.

Series [6] in a line: NaCl extraction from 0.3M NaCl water by ASMC7 at four concentrations + Calix[4]Est in chloroform (Example 12). How it is done: Four extraction compositions were obtained by solubilizing a constant amount of 4-tert-butylCalix[4]arene tetraethylEster (CAS No. 97600-39-0) and four increasing amounts of ASMC7 in chloroform CHCl3 to obtain four final concentrations after solubilization of CEM and ASM, from 0.34 to 0.36 mol/L for Calix[4]Est and 0.36 mol/L, 0.71 mol/L, 1.09 mol/L and 1.49 mol/L for ASMC7, respectively. These four sealed formulations were then orbitally stirred at 500 rpm for 2 hours after adding an equivalent volume of twice distilled water to allow water saturation of the entire formulation and control of pH at the output (pH=7). The extraction composition is then put to stand for settling. All the compositions tested are stable and rapidly decanted (a few minutes at the most).
An 0.3 mol/L NaCl aqueous solution was prepared from twice distilled water.
3 ml of each organic extraction composition are then removed in the lower phase of the settled two-phase mixture and transferred to four vials, each containing 3 ml of the salt water at 0.3M NaCl, then the flasks are sealed and orbitally stirred (at 500 revolutions per minute), for 2 hours at room temperature (RT), that is to say between 20 and 25° C. In the case of extraction at 60° C., a magnetic stirring (at 500 revolutions per minute), for 2 hours, is carried out with indirect heating in a metal mold on a heating plate. It is verified that droplets of the order of 1-2 mm are present during these agitations in order to be certain to reach equilibrium in the NaCl distribution between the two liquid phases at the end of stirring. The appearance of the organic and aqueous phases is clear and colorless for these 4 formulations tested.
After stirring for 2 hours, stirring is stopped and the solution is put to stand for settling within 10 minutes, at least until the two phases have completely separated off, at the test temperature. Then, the four upper aqueous phases are separately taken and then stirred and diluted for analysis of their salinity by a Metrohm Ion Chromatograph incorporating a suitable cation analysis column and a suitable anion analysis column. Similarly, the initial aqueous solution of 0.3M NaCl is also analyzed by this ion chromatograph to determine its relative molar concentration of sodium and chlorides. All extractions and analyzes were duplicated.

Where [7] appears, read: 60° C., CEM 0.341, ASMC7 0.708 Mol/L, ratio 2.08.
Setting [8] is: 60° C., CEM 0.345, ASMC7 0.358 Mol/L, ratio 1.04.
The mark [9] stands for this setting: 60° C., CEM 0.349, ASMC7 1.088 Mol/L, ratio 3.12.
Setting [10] is: 60° C., CEM 0.358, ASMC7 1.488 Mol/L, ratio 4.16.
The mark [11] stands for this setting: RT, CEM 0.341, ASMC7 0.708 Mol/L, ratio 2.08.
Setting [12] is: RT, CEM 0.345, ASMC7 0.358 Mol/L, ratio 1.04.
Where [13] appears, read: RT, CEM 0.349, ASMC7 1.088 Mol/L, ratio 3.12.
Where [14] appears, read: RT, CEM 0.358, ASMC7 1.488 Mol/L, ratio 4.16.

On to “4-tert-Butylcalix[4]arene-O,O′,O″,O′′′- tetraacetic Acid Tetraethyl Ester [Calix[4]Est]”, for which, in series [1], the “Extraction rate at 23° C., Cl−” value was 77%; the “Extraction rate at 23° C., Na+” value came to 75%; the “Extraction rate at 23° C., mean NaCl” value was 76%. Also, the Solubility in water in series [2] is < 1.10^−6 mMole/L. Also, the “Log K(Na+, MeOH, 25° C.)” value in series [3] (listed as Calix4Est) was 5.0-5.7. For the same compound, the “Log K(Na+, MeOH, 25° C.)” value in series [3] is 5.0.

Take `c1ccc2c(c1)OCCOCCOCCOc1ccccc1OCCOCCO2` [DB21C7, 6,7,9,10,12,13,20,21,23,24-Decahydrodibenzo[b,k][1,4,7,10,13,16,19] heptaoxacyclohenicosine]: in series [1], the “Extraction rate at 23° C., Cl−” value amounted to 20.7%; the “Extraction rate at 23° C., Na+” value was determined as 9.4%; the “Extraction rate at 23° C., mean NaCl” value turned out to be 15.2%. Moreover, the “Log K(Na+, MeOH, 25° C.)” value in series [3] was 2.4. In addition, the “Log K(K+, MeOH, 25° C.)” value in series [4] was 4.19.

In the case of `OC(c1cccc(C(F)(F)F)c1)c1cccc(C(F)(F)F)c1`, the solubility in series [2] (read-out: Solubility in water) is 70 µM (≈ 22.4 µg/mL).

As to `CCCCCCCC(=O)Nc1cc(C(F)(F)F)cc(C(F)(F)F)c1` [ASMC7, N-[3,5-bis(trifluoromethyl)phenyl]octanamide], the “NaCl - 20° C. % ext (average)” value in series [5] (20° C., average molar extraction) is 24.6%; in series [6] ([ASMC7]/[CEM] 1.04), 26.2%; in series [6] ([ASMC7]/[CEM] 2.08) it was 44.5%; in series [6] ([ASMC7]/[CEM] 3.12), 55.9%; in series [6] ([ASMC7]/[CEM] 4.16), 66.6%. For the same compound, the “Mol % Cl- extracted from the water to be treated” value in series [5] (60° C.) is 7.6% and 7.3%; in series [5] (RT), 26.3% and 25.9%. Besides, the “Mol % Na+ extracted from the water to be treated” value is 5.5% and 5.4% in series [5] (60° C.); 23.6% and 22.8% in series [5] (RT). Also, the “NaCl - 60° C. % ext (average)” value in series [5] (60° C., average molar extraction) amounted to 6.3%; in series [6] ([ASMC7]/[CEM] 1.04, 60° C.), 12.5%; in series [6] ([ASMC7]/[CEM] 2.08, 60° C.) it was 27.6%; in series [6] ([ASMC7]/[CEM] 3.12, 60° C.), 34.5%; in series [6] ([ASMC7]/[CEM] 4.16, 60° C.), 45.1%. The Δ % ext in series [5] (difference 20° C. minus 60° C.) is 18.4%; in series [6] ([ASMC7]/[CEM] 1.04), 13.6%; in series [6] ([ASMC7]/[CEM] 2.08) it was 16.9%; in series [6] ([ASMC7]/[CEM] 3.12) it was 21.3%; in series [6] ([ASMC7]/[CEM] 4.16), 21.4%. The “Mol % of Cl− extracted from water to be treated” value in series [6] (setting [7]) was 26.6% and 27.4%; in series [6] (setting [8]), 13.0% and 14.1%; in series [6] (setting [9]), 31.0% and 30.4%; in series [6] (setting [10]) it was 45.6% and 39.9%; in series [6] (setting [11]), 44.4%; in series [6] (setting [12]) it was 27.9% and 27.2%. In addition, the “Mol % of Cl− extracted from water to be treated” value is 51.2% and 52.9% in series [6] (setting [13]); 64.6% and 65.6% in series [6] (setting [14]). The “Mol % of Na+ extracted from water to be treated” value in series [6] (setting [7]) was 28.1% and 28.2%; in series [6] (setting [8]), 9.9% and 13.1%; in series [6] (setting [9]), 37.7% and 39.5%; in series [6] (setting [10]), 48.4% and 46.9%; in series [6] (setting [11]), 44.2% and 45.1%; in series [6] (setting [12]), 27.9% and 21.7%. Besides, the “Mol % of Na+ extracted from water to be treated” value in series [6] (setting [13]) is 60.0% and 59.8%; in series [6] (setting [14]), 71.2% and 65.0%.

`C1CCC2OCCN3CCOCCOCCN(CCOC2C1)CCOC1CCCCC1OCC3` (stereo not drawn) [DC[2.2.2], 5,6,14,15-DiCyclohexano-4,7,13,16,21,24-hexaoxa-1,10-diazabicyclo[8.8.8] hexacosane] had a Solubility in water in series [2] of 3 mmol/L (≈ 1450 µg/mL). The “Log K(Na+, MeOH, 25° C.)” value in series [3] was 6.02. The “Log K(K+, MeOH, 25° C.)” value in series [4] is 6.92.

For `CCCC(O)c1cc(C(F)(F)F)cc(C(F)(F)F)c1` (stereo not drawn), the solubility in series [2] (read-out: Solubility in water) stood at 480 µM (≈ 137 µg/mL).

As to `C1CCC2OCCOCCOCCOCCOC2C1` (stereo not drawn) [C15C5, Perhydrobenzo[b]-1,4,7,10,′3-pentaoxacyclopentadecane], in series [1], the “Extraction rate at 23° C., Cl−” value is recorded as 30.7%; the “Extraction rate at 23° C., Na+” value is reported as 21.0%; the “Extraction rate at 23° C., mean NaCl” value is recorded as 26.0%. Moreover, the “Log K(Na+, MeOH, 25° C.)” value in series [3] is listed as 3.71-3.9. Also, the “Log K(K+, MeOH, 25° C.)” value in series [4] was 3.96.

In the case of `c1ccc2c(c1)OCCN1CCOCCOCCN(CCO2)CCOc2ccccc2OCC1` [DB[2.2.2], 5,6,14,15-DiBenzo-4,7,13,16,21,24-hexaoxa-1,10-diazabicyclo[8.8.8] hexacosane], the Solubility in water in series [2] came to 2.5 mmol/L (≈ 1180 µg/mL). Also, the “Log K(Na+, MeOH, 25° C.)” value in series [3] is reported as 7.60. Moreover, the “Log K(K+, MeOH, 25° C.)” value in series [4] is 8.74.

`CC(O)c1cccc(C(F)(F)C(F)(F)C(F)(F)F)c1` (stereo not drawn) registered a solubility in series [2] of 420 µM (≈ 122 µg/mL).

Source of the values: patent US11731933B2, “Device and method for the desalination of water by means of thermal deionisation and liquid-phase ion extraction liquid” (ADIONICS, priority 2015, dated 2023).
